Source: ChEMBL document CHEMBL5634146, “Discovery of benzimidazole-indazole derivatives as potent FLT3-tyrosine kinase domain mutant kinase inhibitors for acute myeloid leukemia” (Eur J Med Chem, 2023)

Tests used:
in vitro [1] = details: mouse, liver S9 fraction
in vitro [2] = details: human, liver S9 fraction

remaining at 0.5 h (in vitro [1]): 61%
remaining at 0.5 h (in vitro [2]): 61%
SMILES: N[C@H]1CC[C@H](NC(=O)c2ccc3[nH]nc(-c4nc5ccc(N6CCOCC6)cc5[nH]4)c3c2)C1
